Results as given in patent US4602015A, “2-piperazinopyrimidine salt and pharmaceutical compositions containing it” (priority 1983, dated 1986).

Columns and labels:
[1] = H. W. Stewart et al., J. Org. Chem. 1953; cited from earlier work
[2] = tested on: rotational behaviour after unilateral lesion of the striatum; test: rotational behaviour in lesioned mice, time course 60, 180 and 360 minutes; format: in vivo, Female Charles River CD1 mice; conditions: for Variation % of turns after 60 minutes: Table III, mouse, oral, dose corresponding to 0.15 mg/kg free base, ** p < 0.01, ns not significant
Source text: (§1) The dopaminergic mechanism of the compound of the invention was studied in comparison with the corresponding free base and its hydrochloride by analysing the rotational behaviour in mice after unilateral lesion of the striatum (P. Protais et al., J. Pharmacol. 1976, 7, 251-255).
(§2) Female Charles River CD1 mice weighing 20-24 g were previously subjected to a unilateral lesion of the striatum by stereotaxic injection of 8 mcg/animal of 6-hydroxydopamine. A week later, the 2-(1-piperazinyl)-pyrimidine napsilate, the 2-(1-piperazinyl)pyrimidine hydrochloride and the free base were administered by oral route to groups of six mice at a dose corresponding to 0.15 mg/kg of free base. The number of turns was recorded, during 2 minutes, one hour after the administration of the three products. The turns ipsilateral to the lesion were plotted as positive values, the contralateral turns were plotted as negative values. The algebric sum of turns for each group of treated animals was compared to that of control animals treated with the vehicle (saline) only.
The dopaminergic action of the compound of the present invention has also been evaluated in the time in comparison with the corresponding free base and the hydrochloride thereof.

[3] = tested on: prochlorperazine-induced catalepsy; test: antagonism of prochlorperazine-induced catalepsy (cork test, oral); format: in vivo, Wistar male rats; conditions: rat; for Prochlorperazine Catal. antag. ED50: 1 h before prochlorperazine 10 mg/kg s.c., interval in parentheses printed on next line: napsilate (5.0-6.4), base (12-45)
Method: The antidepressive activity of the compound of the invention has been evaluated in the test of antagonism of prochlorperazine-induced catalepsy (K. Biziere et al., Arzneimittel Forschung, 1982, 32 (II), 824-831). The 2-(1-piperazinyl)pyrimidine napsilate and the corresponding free base, as reference compound, were administered orally to groups of 10 Wistar male rats weighing 220-240 g; at the same time control animals were treated with saline. One hour later, prochlorperazine was administered subcutaneously at a dose of 10 mg/kg. Five hours after this administration, the number of cataleptic animals was assessed by the cork test. According to this test the animals were placed with their forepaws on a stand formed by three superposed corks (11 cm total height) and forced to maintain this position for 20 seconds at least. The performances of each group of animals were compared with those of the controls having received the vehicle and prochlorperazine only.

[4] = tested on: rotational behaviour after unilateral lesion of the striatum; test: rotational behaviour in mice after unilateral 6-hydroxydopamine lesion of the striatum; format: in vivo, Female Charles River CD1 mice; conditions: for Variation % of turns as compared to controls: Table II, mouse, oral, 1 h after administration, doses 0.15 (base), 0.18 (hydrochloride), 0.34 (napsilate) mg/kg = 0.15 mg/kg free base, ** p < 0.01, ns not significant
Source text: as §1, §2

[5] = tested on: rotational behaviour after unilateral lesion of the striatum; test: rotational behaviour in lesioned mice, time course 60, 180 and 360 minutes; format: in vivo, Female Charles River CD1 mice; conditions: Table III, mouse, oral, dose corresponding to 0.15 mg/kg free base, ** p < 0.01, ns not significant
[6] = psychotropic activity (general statement); format: in vivo

SMILES | analgesic or antifilarial activity (in words) [1] | Variation % of turns after 60 minutes [2] [%] | activity with time (in words) ([2]; comment on Table III) | Prochlorperazine Catal. antag. ED50 [3] [mcmol/kg] | Variation % of turns as compared to controls [4] [%] | effect on algebric sum of turns (in words) ([4]; comment on Table II) | Variation % of turns after 180 minutes [5] [%] | Variation % of turns after 360 minutes [5] [%] | dopaminergic activity (in words) ([4]; comment on Table II) | psychotropic activity (in words) ([6]; dopaminergic mechanism, antipsychotic, antidepressive, tranquillizing-sedative) | activity versus free base and hydrochloride (in words) ([6]; in the absolute sense) | duration of activity (in words) ([6]; in vivo) | potency versus reference products (in words) ([2]; comment on Table III, versus free base and hydrochloride) | oral activity relative to corresponding free base (times more active) ([3]; ratio versus free base) | negative variation of turns ([4]; comment on Table II, contralateral turns exceed ipsilateral turns)
c1cnc(N2CCNCC2)nc1 [2-(1-piperazinyl)pyrimidine base, 2-(1-piperazinyl)pyrimidine] | none of which has shown analgesic or antifilarial activity | -94 | tends to decrease with the time | 24 | -94 | significantly reduces the algebric sum of turns | -62 | -60 | – | – | – | – | – | – | –
Cl.c1cnc(N2CCNCC2)nc1 [2-(1-piperazinyl)pyrimidine hydrochloride] | – | -29 | inactive with the time too | – | -29 | no significant effect | -28 | -22 | nearly inactive | – | – | – | – | – | –
c1cnc(N2CCNCC2)nc1 [2-(1-piperazinyl)pyrimidine napsilate, 2-(1-piperazinyl)pyrimidine 2-naphtalenesulfonate] | – | -117 | increases significantly with the time | 5.7 | -117 | – | -126 | -147 | dopaminergic activity higher than that of the free base | very good psychotropic activity | much more active | long-lasting and increases with time | more potent than the reference products | about 4 times | higher than 100%
